This passage reports IC50 results from patent publication US20200123127A1, “REMOVAL OF SENESCENCE-ASSOCIATED MACROPHAGES” (EVERON BIOSCIENCES, INC., priority 2016, published 2020).

Where two headings read alike, the source gives them in different places.

The subject of assay [1] is human neonatal dermal fibroblasts (NDF). Put plainly: Resazurin viability assay, senescent vs proliferating/quiescent human neonatal dermal fibroblasts. Conditions: Homo sapiens, Fibroblast, 72 h, 72 hour exposure, resazurin. The format is cell-based. How it is done: FIG. 2. Compound A1.1 selectively kills senescent human neonatal dermal fibroblasts (NDF) cells in a dose- and time-dependent manner. (FIG. 2A) Normal proliferating and quiescent NDF cells, and the cells made senescent via exposure to genotoxic agents (doxorubicin, bleomycin and gamma-irradiation) were incubated with increasing concentrations of A1.1. At 72 hours post-treatment cell viability was measured via resazurin viability assay. (FIG. 2B) Compound A1.1 selectively kills senescent NDF cells in time-dependent manner discriminating between acute genotoxic stress and senescence. Acutely damaged NDF cells were irradiated with 4 Gy gamma-irradiation 24 hours before A1.1 treatment. Senescent NDF cells were treated with bleomycin or irradiated with 15 Gy and incubated for 14 days to induce senescence before treatment with A1.1. Proliferating acutely damaged and senescent NDF cell were treated with 1.875-30 μM A1.1 and viable cells were measured at 72 hours after treatment. Average and standard deviation are shown.
Normal proliferating and quiescent NDF cells, and the cells made senescent via exposure to genotoxic agents (doxorubicin, bleomycin and gamma-irradiation) were incubated with increasing concentrations of A1.1. At 72 hours post-treatment cell viability was measured via resazurin viability assay.
A1.1 selectively kills senescent human neonatal dermal fibroblasts (NDF) cells in time-dependent manner discriminating between acute genotoxic stress and senescence ([…]). Acutely damaged NDF cells were irradiated with 4 Gy gamma-irradiation 24 hours before A1.1 treatment. Senescent NDF cells were treated with bleomycin or irradiated with 15 Gy and incubated for 14 days to induce senescence before treatment with A1.1.
(§1) Cytotoxicity of A1.1 analogs against bleomycin-induced senescent human NDFs and rat dermal fibroblasts (RDFs). Activity of analogs was assessed from dose-response curves against irradiation- or bleomycin-induced senescent and proliferating cells to calculate IC50s (uM). The fold difference of proliferating versus senescent cell IC50s was used to assess the level of specific anti-senescent activity of the compounds.
(§2) For generation senescent human neonatal dermal fibroblasts (NDFs) and adult rat dermal fibroblasts (RDFs), cells are treated at ˜10 ug/ml bleomycin for 3 days (for bleomycin-induced senescence) or irradiated once at 20 Gy using a gamma irradiator (Cs source), followed by at least 7 day recovery in fresh medium for induction of senescence. Senescent and non-senescent (proliferating) cells for each cell line are plated into 384-w plate, followed by 72 hour exposure to a dose titration of compounds. Viability measurements are estimated using the resazurin viability assay. Using GraphPad Prism 5, the IC50 values are calculated from the non-linear regression of log-transformed compound concentrations versus dose-response normalized to background and non-treated controls.
(Resazurin is reduced to fluorescent resorufin, in cell work by metabolically active cells.)

The test system of assay [2] is adult rat dermal fibroblasts (RDF). Put plainly: Resazurin viability assay, senescent vs proliferating rat dermal fibroblasts. The format is cell-based. Conditions: Rattus norvegicus, Fibroblast, 72 hour exposure, resazurin. On the procedure:
as §1, §2

Setting [3] is: proliferating NDF, read-out: IC50 NDFprolif.
Setting [4] is: senescent NDF, bleomycin-induced, read-out: IC50 NDFsen.bleo.
Where [5] appears, read: light or radiation study, senescent NDF, irradiation-induced, read-out: IC50 NDFsen.irr.
Setting [6] is: light or radiation study, senescent RDF, irradiation-induced, read-out: IC50 RDFsen.irr.
The mark [7] stands for this setting: proliferating RDF, read-out: IC50 RDFprolif.
The mark [8] stands for this setting: senescent RDF, bleomycin-induced, read-out: IC50 RDFsen.bleo.

Turning to `CC1(C)CC(=NO)c2c(SCc3ccccc3)sc(C(=O)NCc3ccccc3)c2C1` [Example A1.4, N-benzyl-3-(benzylthio)-4-(hydroxyimino)-6,6-dimethyl-4,5,6,7-tetrahydrobenzo[c]thiophene-1-carboxamide], the IC50 in assay [1] (setting [3]) was over 20 µM; in assay [1] (setting [4]), under 10 µM.
In the case of `CCOC(=O)c1sc(Sc2ccccc2)c2c1CC(c1ccc(OC)cc1)C/C2=N\O` (stereo not drawn) [Example A1.5, Ethyl 4-(hydroxyimino)-6-(4-methoxyphenyl)-3-(phenylthio)-4,5,6,7-tetrahydro-benzo[c]thiophene-1-carboxylate], the IC50 in assay [1] (setting [3]) was over 10 µM; in assay [1] (setting [4]), under 10 µM; in assay [1] (setting [5]), under 10 µM; in assay [2] (setting [6]), under 5 µM; in assay [2] (setting [7]), over 10 µM; in assay [2] (setting [8]), under 5 µM.
Consider `CCOC(=O)c1sc(SCc2ccccc2)c2c1CC(c1ccc(F)cc1)CC2=NO` (stereo not drawn) [Example A1.7, Ethyl 3-(benzylthio)-6-(4-fluorophenyl)-4-(hydroxyimino)-4,5,6,7-tetrahydrobenzo[c]-thiophene-1-carboxylate], for which the IC50 in assay [1] (setting [3]) is over 10 µM; in assay [1] (setting [4]) it was under 2.5 µM; in assay [1] (setting [5]), under 2.5 µM; in assay [2] (setting [6]), under 2.5 µM; in assay [2] (setting [7]), over 5 µM; in assay [2] (setting [8]) it was under 2.5 µM.
As for `COc1ccc(C2CC(=NO)c3c(SCc4ccccc4)sc(C(=O)OCc4ccccc4)c3C2)cc1` (stereo not drawn) [Example A1.8, Benzyl 3-(benzylthio)-4-(hydroxyimino)-6-(4-methoxyphenyl)-4,5,6,7-tetrahydrobenzo[c]-thiophene-1-carboxylate], the IC50 is over 20 µM in assay [1] (setting [3]) and under 10 µM in assay [1] (setting [4]).
`CCOC(=O)c1sc(SCc2ccccc2)c2c1C(c1ccc(OC)cc1)CC/C2=N\O` (stereo not drawn) [Example A1.9, Ethyl 3-(benzylthio)-4-(hydroxyimino)-7-(4-methoxyphenyl)-4,5,6,7-tetrahydrobenzo[c]-thiophene-1-carboxylate]: the IC50 was over 20 µM in assay [1] (setting [3]); under 20 µM in assay [1] (setting [4]); under 20 µM in assay [1] (setting [5]); under 20 µM in assay [2] (setting [6]); over 20 µM in assay [2] (setting [7]); over 20 µM in assay [2] (setting [8]).
On to `COc1ccc(C2C/C(=N\O)c3c(SCc4ccccc4)sc(C(=O)NCc4ccccc4)c3C2)cc1` (stereo not drawn) [Example A1.14, N-benzyl-3-(benzylthio)-4-(hydroxyimino)-6-(4-methoxyphenyl)-4,5,6,7-tetrahydrobenzo[c]thiophene-1-carboxamide], for which the IC50 is over 20 µM in assay [1] (setting [3]); under 5 µM in assay [1] (setting [4]); under 5 µM in assay [1] (setting [5]); under 2.5 µM in assay [2] (setting [6]); over 20 µM in assay [2] (setting [7]); under 2.5 µM in assay [2] (setting [8]).
`COc1ccc(C2C/C(=N\O)c3c(SCc4ccccc4)sc(C(=O)NCc4ccco4)c3C2)cc1` (stereo not drawn) [Example A1.15, 3-(Benzylthio)-N-(furan-2-ylmethyl)-4-(hydroxyimino)-6-(4-methoxyphenyl)-4,5,6,7-tetrahydrobenzo[c]thiophene-1-carboxamide]: the IC50 was over 20 µM in assay [1] (setting [3]); under 5 µM in assay [1] (setting [4]); under 5 µM in assay [1] (setting [5]); under 5 µM in assay [2] (setting [6]); over 20 µM in assay [2] (setting [7]); under 2.6 µM in assay [2] (setting [8]).
As to `Cc1ccc(CNc2ncc3c(n2)CC(c2ccccc2)C/C3=N\O)cc1` (stereo not drawn) [Example A2.1, 2-((4-Methylbenzyl)amino)-7-phenyl-7,8-dihydroquinazolin-5(6H)-one oxime], the IC50 is over 20 µM in assay [1] (setting [3]); under 5 µM in assay [1] (setting [4]); under 5 µM in assay [1] (setting [5]); under 5 µM in assay [2] (setting [6]); over 20 µM in assay [2] (setting [7]); under 5 µM in assay [2] (setting [8]).
Turning to `O/N=C1\CC(c2ccccc2)Cc2nc(NCCOc3ccccc3)ncc21` (stereo not drawn) [Example A2.2, 2-((2-Phenoxyethyl)amino)-7-phenyl-7,8-dihydroquinazolin-5(6H)-one oxime], the concentration for half-maximal inhibition (IC50) in assay [1] (setting [3]) was over 20 µM; in assay [1] (setting [4]), under 2.5 µM; in assay [1] (setting [5]), under 5 µM; in assay [2] (setting [6]), under 2.5 µM; in assay [2] (setting [7]) it was over 20 µM; in assay [2] (setting [8]) it was under 2.5 µM.
As for `Nc1nc(CCCc2ccccc2)c2c(n1)CC(c1ccccc1)C/C2=N\O` (stereo not drawn) [Example A2.3, 2-Amino-7-phenyl-4-(3-phenylpropyl)-7,8-dihydroquinazolin-5(6H)-one oxime], the IC50 in assay [1] (setting [3]) was over 20 µM; in assay [1] (setting [4]), under 20 µM; in assay [1] (setting [5]), under 20 µM; in assay [2] (setting [7]) it was over 20 µM; in assay [2] (setting [8]) it was under 15 µM.
Take `O=C(Nc1ccccc1)c1cc2c(nc1NCCOc1ccccc1)CC(c1ccccc1)C/C2=N\O` (stereo not drawn) [Example A3.1, 5-(Hydroxyimino)-2-((2-phenoxyethyl)amino)-N,7-diphenyl-5,6,7,8-tetrahydroquinoline-3-carboxamide]: the IC50 in assay [1] (setting [3]) is under 5 µM; in assay [1] (setting [4]), under 2.5 µM; in assay [1] (setting [5]) it was under 2.5 µM; in assay [2] (setting [6]) it was under 2.5 µM; in assay [2] (setting [7]), over 20 µM; in assay [2] (setting [8]), under 2.5 µM.
For `N#Cc1cc2c(nc1SCc1ccccc1)CC(c1ccccc1)C/C2=N\O` (stereo not drawn) [Example A3.2, 2-(Benzylthio)-5-(hydroxyimino)-7-phenyl-5,6,7,8-tetrahydroquinoline-3-carbonitrile], the IC50 in assay [1] (setting [3]) was over 20 µM; in assay [1] (setting [4]) it was under 15 µM; in assay [1] (setting [5]), under 10 µM; in assay [2] (setting [6]) it was under 2.5 µM; in assay [2] (setting [7]) it was over 20 µM; in assay [2] (setting [8]), under 5 µM.
As to `COc1ccc(C2C/C(=N\O)c3sc(NC(=O)COc4ccc(C)cc4)nc3C2)cc1` (stereo not drawn) [Example A4.1], the IC50 is over 5 µM in assay [1] (setting [3]); under 5 µM in assay [1] (setting [4]); under 2.5 µM in assay [1] (setting [5]); under 5 µM in assay [2] (setting [6]); under 10 µM in assay [2] (setting [7]); under 5 µM in assay [2] (setting [8]).
Turning to `O/N=C1\CC(c2ccccc2)Cc2nc(NCc3ccccc3)sc21` (stereo not drawn) [Example A4.2, 2-(Benzylamino)-5-phenyl-5,6-dihydrobenzo[d]thiazol-7(4H)-one oxime], the half-inhibitory concentration (IC50) is over 20 µM in assay [1] (setting [3]); under 15 µM in assay [1] (setting [4]); under 15 µM in assay [1] (setting [5]); under 10 µM in assay [2] (setting [6]); over 20 µM in assay [2] (setting [7]); under 10 µM in assay [2] (setting [8]).

As usually defined, the IC50 is the concentration that gives 50% inhibition.
